Molecules are shown by their SMILES. Values joined by “and” are separate entries in the source; they are usually repeats but may differ in a detail not shown here. Identical values can stand only once. Inconclusive results and toxic doses are left out.

The test system of this assay is L1210 leukemia ip in BDF1 mice, survival T/C. As to the kind of experiment: NCI In Vivo Anticancer Drug Screen. Data for tumor model L1210 Leukemia (intraperitoneal) in B6D2F1 (BDF1) mice. The settings on record: endpoint: mean survival time, higher = longer survival. In outline: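 Value reflects the ratio of survival in compound-treated mice to survival in vehicle-treated controls, with both groups carrying the same transplanted tumor.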

Setting [1] is: dose: 100.0 mg/kg/injection, schedule: Q01DX009 (ip), vehicle: saline with Tween-80.
[2] abbreviates: dose: 200.0 mg/kg/injection, schedule: Q01DX009 (ip), vehicle: saline with Tween-80.
[3] abbreviates: dose: 400.0 mg/kg/injection, schedule: Q01DX009 (ip), vehicle: saline with Tween-80.
[4] abbreviates: dose: 100.0 mg/kg/injection, schedule: Q04DX003 (ip), vehicle: saline.
Where [5] appears, read: dose: 200.0 mg/kg/injection, schedule: Q04DX003 (ip), vehicle: saline.
[6] abbreviates: dose: 100.0 mg/kg/injection, schedule: Q04DX003 (ip), vehicle: Klucel (hydroxypropylcellulose) (HPC).
[7] abbreviates: dose: 200.0 mg/kg/injection, schedule: Q04DX003 (ip), vehicle: Klucel (hydroxypropylcellulose) (HPC).
Setting [8] is: dose: 400.0 mg/kg/injection, schedule: Q04DX003 (ip), vehicle: Klucel (hydroxypropylcellulose) (HPC).
Setting [9] is: dose: 100.0 mg/kg/injection, schedule: Q04DX002 (ip), vehicle: saline with Tween-80.
The mark [10] stands for this setting: dose: 200.0 mg/kg/injection, schedule: Q04DX002 (ip), vehicle: saline with Tween-80.
Where [11] appears, read: dose: 400.0 mg/kg/injection, schedule: Q04DX002 (ip), vehicle: saline with Tween-80.
Setting [12] is: dose: 100.0 mg/kg/injection, schedule: Q01DX009 (ip), vehicle: Klucel (hydroxypropylcellulose) (HPC).
Setting [13] is: dose: 200.0 mg/kg/injection, schedule: Q01DX009 (ip), vehicle: Klucel (hydroxypropylcellulose) (HPC).
The mark [14] stands for this setting: dose: 400.0 mg/kg/injection, schedule: Q01DX009 (ip), vehicle: Klucel (hydroxypropylcellulose) (HPC).
Setting [15] is: dose: 100.0 mg/kg/injection, schedule: Q04DX002 (ip), vehicle: Klucel (hydroxypropylcellulose) (HPC).
Where [16] appears, read: dose: 100.0 mg/kg/injection, schedule: Q04DX003 (ip), vehicle: saline with Tween-80.
The mark [17] stands for this setting: dose: 200.0 mg/kg/injection, schedule: Q04DX002 (ip), vehicle: Klucel (hydroxypropylcellulose) (HPC).
[18] abbreviates: dose: 200.0 mg/kg/injection, schedule: Q04DX003 (ip), vehicle: saline with Tween-80.
The mark [19] stands for this setting: dose: 400.0 mg/kg/injection, schedule: Q04DX002 (ip), vehicle: Klucel (hydroxypropylcellulose) (HPC).
The mark [20] stands for this setting: dose: 400.0 mg/kg/injection, schedule: Q04DX003 (ip), vehicle: saline with Tween-80.
Setting [21] is: dose: 25.0 mg/kg/injection, schedule: Q01DX009 (ip), vehicle: Klucel (hydroxypropylcellulose) (HPC).
[22] abbreviates: dose: 50.0 mg/kg/injection, schedule: Q01DX009 (ip), vehicle: Klucel (hydroxypropylcellulose) (HPC).
Where [23] appears, read: dose: 12.5 mg/kg/injection, schedule: Q01DX009 (ip), vehicle: Klucel (hydroxypropylcellulose) (HPC).
Where [24] appears, read: dose: 100.0 mg/kg/injection, schedule: Q01DX001 (ip), vehicle: saline.
[25] abbreviates: dose: 200.0 mg/kg/injection, schedule: Q01DX001 (ip), vehicle: saline.

For the compound `CCOC(=O)Nc1nc(NC(=O)OCC)c(Cl)nc1Cl`, the T/C runs as follows: (dose: 25.0 mg/kg/injection, schedule: Q01DX009 (ip), vehicle: water) 104 % of control; (dose: 50.0 mg/kg/injection, schedule: Q01DX009 (ip), vehicle: water) 100 % of control; (dose: 100.0 mg/kg/injection, schedule: Q01DX009 (ip), vehicle: water) 114 % of control; (dose: 200.0 mg/kg/injection, schedule: Q01DX009 (ip), vehicle: water) 106 % of control; (dose: 400.0 mg/kg/injection, schedule: Q01DX009 (ip), vehicle: water) 97 % of control.

For the compound `Nc1nc(N)nc(-c2ccncc2)n1`, the T/C (dose: 50.0 mg/kg/injection, schedule: Q01DX009 (ip), vehicle: saline with Tween-80) was 119 % of control.

Consider `Nc1cccc2c1C(=O)c1ccccc1-2`, for which the T/C is, setting by setting: under setting [1], 97 % of control; under setting [2], 103 % of control; under setting [3], 97 % of control.

Regarding `COC1OC1(C)C` (stereo not drawn), the T/C is 102 % of control (dose: 100.0 mg/kg/injection, schedule: Q01DX009 (ip), vehicle: saline); 104 % of control under setting [4]; 103 % of control (dose: 200.0 mg/kg/injection, schedule: Q01DX009 (ip), vehicle: saline); 102 % of control under setting [5]; 100 % of control (dose: 400.0 mg/kg/injection, schedule: Q01DX009 (ip), vehicle: saline); 98 % of control (dose: 400.0 mg/kg/injection, schedule: Q04DX003 (ip), vehicle: saline).

With `CCCCCCCCCCCCCCCCCC(=O)CS(C)=O` (stereo not drawn), the T/C runs as follows: under setting [6], 94 % of control; under setting [7], 91 % of control; under setting [8], 96 % of control.

Turning to `CC(C)n1cc(C(=O)c2ccccc2)cc1-c1ccccc1`, the T/C was 93 % of control under setting [9], 89 % of control under setting [10] and 97 % of control under setting [11].

With `Cc1ccc(S(=O)(=O)N/N=C/C=C\C=N\NS(=O)(=O)c2ccc(C)cc2)cc1`, the T/C is, setting by setting: under setting [12], 98 % of control; under setting [13], 96 % of control; under setting [14], 90 % of control.

As for `O=C(O)C1C2CCCCC2=C2CCCCC2C1C(=O)O` (stereo not drawn), the T/C is, setting by setting: under setting [15], 90 % of control; under setting [16], 93 % of control; under setting [17], 98 % of control; under setting [18], 94 % of control; under setting [19], 93 % of control; under setting [20], 91 % of control.

For the compound `NNC(=S)NCCc1ccccc1`, the T/C by setting is: under setting [21], 101 % of control; under setting [22], 105 % of control.

Turning to `CCOC(=O)c1ccc(=O)[nH]c1.[Ag]`, the T/C is, setting by setting: (dose: 6.25 mg/kg/injection, schedule: Q01DX009 (ip), vehicle: Klucel (hydroxypropylcellulose) (HPC)) 94 % of control; under setting [23], 90 % of control; under setting [21], 90 % of control; under setting [22], 86 % of control; under setting [6], 95 % of control; under setting [7], 92 % of control.

With `O=C(O)/C=C/c1ccncc1`, the T/C runs as follows: (dose: 100.0 mg/kg/injection, schedule: Q01DX001 (ip), vehicle: other) 103 % of control; under setting [15], 93 % of control; under setting [4], 103 % of control; (dose: 200.0 mg/kg/injection, schedule: Q01DX001 (ip), vehicle: other) 105 % of control; under setting [17], 86 % of control; under setting [5], 92 % of control. In addition, the T/C is, setting by setting: (dose: 400.0 mg/kg/injection, schedule: Q01DX001 (ip), vehicle: other) 97 % of control; under setting [19], 93 % of control.

In the case of `CC1(C)CCC(C)(C)C(O)C1O` (stereo not drawn), the T/C was 92 % of control under setting [15], 105 % of control under setting [17] and 118 % of control under setting [19].

In the case of `CCCN(CCC)CP(=S)(CN(CCC)CCC)CN(CCC)CCC`, the T/C is 92 % of control under setting [24] and 90 % of control under setting [25].

In the case of `OC1CCCC2CCCNC12` (stereo not drawn) (tested in a mixture with another compound), the T/C by setting is: under setting [12], 105 % of control; under setting [6], 93 % of control; under setting [13], 95 % of control; under setting [7], 105 % of control; under setting [14], 90 % of control; under setting [8], 89 % of control.

Take `O=C1C=CC(=O)N1c1ccc([N+](=O)[O-])cc1[N+](=O)[O-]`: the T/C reads like this: under setting [23], 98 % of control; under setting [21], 103 % of control; under setting [22], 103 % of control; under setting [12], 105 % of control.

For `CC(C)(C)OC(=O)N/N=C1\CC2CCC1C2` (stereo not drawn), where the note is “dose: 100.0 mg/kg/injection, schedule: Q04DX003 (ip), vehicle: acetone”, the T/C was 95 % of control.

For `C/C=C\c1ccc(OCCOC(C)=O)c(OC)c1`, the T/C is 97 % of control under setting [9], 97 % of control under setting [10] and 93 % of control under setting [11].

Regarding `O=C(/C=C/c1ccccc1)NN1CCCCC1`, the T/C reads like this: under setting [12], 94 % of control; under setting [6], 100 % of control; under setting [13], 110 % of control; under setting [7], 98 % of control.

`CCCCCCCCCCCCCCCCCC(=O)NCCS`: the T/C was 101 % of control (dose: 25.0 mg/kg/injection, schedule: Q04DX002 (ip), vehicle: saline with Tween-80); 89 % of control (dose: 50.0 mg/kg/injection, schedule: Q04DX002 (ip), vehicle: saline with Tween-80); 104 % of control under setting [9].

For the compound `Cc1c(NC(=O)Nc2ccc(C3=NCCCN3)cc2)cccc1NC(=O)Nc1ccc(C2=NCCCN2)cc1`, the T/C runs as follows: (dose: 4.0 mg/kg/injection, schedule: Q01DX Z (ip), vehicle: water) 96 % of control; (dose: 6.0 mg/kg/injection, schedule: Q01DX Z (ip), vehicle: water) 121 % of control; (dose: 8.0 mg/kg/injection, schedule: Q01DX Z (ip), vehicle: water) 109 % of control; (dose: 25.0 mg/kg/injection, schedule: Q01DX Z (ip), vehicle: water) 215 % of control; (dose: 31.0 mg/kg/injection, schedule: Q01DX Z (oral), vehicle: water) 113 % of control; (dose: 50.0 mg/kg/injection, schedule: Q01DX Z (ip), vehicle: water) 162 % of control. Also, the T/C (dose: 100.0 mg/kg/injection, schedule: Q01DX Z (ip), vehicle: water) is 191 % of control and the T/C (dose: 125.0 mg/kg/injection, schedule: Q01DX Z (oral), vehicle: water) is 108 % of control.

On to `N#Cc1ccc(C#N)cc1`, for which the T/C reads like this: under setting [1], 97 % of control; under setting [16], 92 % of control and 95 % of control; under setting [2], 104 % of control; under setting [18], 106 % of control and 86 % of control; under setting [3], 115 % of control; under setting [20], 100 % of control and 104 % of control.

Regarding `CC(=O)CC(=O)Nc1cccc(O)c1`, the T/C reads like this: under setting [13], 91 % of control; under setting [14], 100 % of control.

`O=C1C=C(Nc2ccccc2)C(=O)N1c1ccccc1`: the T/C was 95 % of control under setting [24] and 95 % of control under setting [25].

For the compound `CCOC(=O)Nc1cc(N(C)CC(O)CN(C)c2ccccc2)c(N)c(N)n1` (stereo not drawn), the T/C by setting is: (dose: 100.0 mg/kg/injection, schedule: Q01DX001 (ip), vehicle: Klucel (hydroxypropylcellulose) (HPC)) 106 % of control; (dose: 200.0 mg/kg/injection, schedule: Q01DX001 (ip), vehicle: Klucel (hydroxypropylcellulose) (HPC)) 107 % of control; (dose: 400.0 mg/kg/injection, schedule: Q01DX001 (ip), vehicle: Klucel (hydroxypropylcellulose) (HPC)) 105 % of control.

Values taken from PubChem BioAssay AID248 (DTP/NCI, 2004).
